Data on eight compounds can be found in patent US20240270762A1, “PENICILLIN-BINDING PROTEIN INHIBITORS” (priority 2021, published 2024).

In brackets after ≈: the same amount, converted by molar mass.

One assay concerns A. baumannii CDC-0045. Description: microbe, parasite or virus in culture. The format is cell-based. To be noted: Acinetobacter baumannii, CDC0045, read-out: MIC, A. baumannii CDC-0045.
For a further assay, the system named is A. baumannii 1258916. Description: microbe, parasite or virus in culture. The format is cell-based, Acinetobacter baumannii. The conditions noted are these: Acinetobacter baumannii, 1258916, read-out: MIC, A. baumannii 1258916.
The test system of a further assay is P. aeruginosa CDC-0054. Description: microbe, parasite or virus in culture. The conditions noted are these: Pseudomonas aeruginosa, CDC0054, read-out: Minimum inhibitory concentration, P. aeruginosa CDC-0054. The format is cell-based.
Assay [1] concerns the target T1, PBP3 from Pseudomonas aeruginosa (PAO1) (Pseudomonas aeruginosa, UniProt G3XD46).
T1 construct: made in house
Description: Bocillin-FL fluorescence polarization competition binding, P. aeruginosa PBP3. The conditions noted are these: Binding affinity to P. aeruginosa PBP3; fluorescence polarization competition binding assay using Bocillin-FL; read-out: P. aeruginosa PBP3 Potency. Summed up:
(§1)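 Purified PBPs pre-incubated with inhibitor (E. coli PBP3 1.5 μM, 30 min; P. aeruginosa PBP3 0.75 μM, A. baumannii PBP1a 1 μM and PBP3 0.2 μM, 15 min), then Bocillin-FL 0.1 μM (0.05 μM for PBP1a) added; FP read up to 60 min. EC50 = concentration halving bound Bocillin-FL.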
For orientation: Fluorescence polarisation rises when a labelled molecule tumbles more slowly, as on binding a larger partner.

The subject of the next assay is P. aeruginosa ATCC 27853. Description: microbe, parasite or virus in culture. The format is cell-based. The conditions noted are these: Pseudomonas aeruginosa, ATCC27853, read-out: Minimum inhibitory concentration, P. aeruginosa ATCC 27853.
The next assay deals with P. aeruginosa CDC-0090. Description: microbe, parasite or virus in culture. The conditions noted are these: Pseudomonas aeruginosa, CDC0090, read-out: Minimum inhibitory concentration, P. aeruginosa CDC-0090. The format is cell-based.
The test system of assay [2] is B. thailandensis ATCC 700388. Description: microbe, parasite or virus in culture. The format is cell-based. To be noted: Burkholderia thailandensis, ATCC700388, read-out: Minimum inhibitory concentration (MIC), B. thailandensis ATCC 700388.
Assay [3] has as its target T2, PBP3 from Acinetobacter baumannii (ATCC 19606) (Acinetobacter baumannii, UniProt A0ABX6CK25).
T2 sequence (A0ABX6CK25 64-610): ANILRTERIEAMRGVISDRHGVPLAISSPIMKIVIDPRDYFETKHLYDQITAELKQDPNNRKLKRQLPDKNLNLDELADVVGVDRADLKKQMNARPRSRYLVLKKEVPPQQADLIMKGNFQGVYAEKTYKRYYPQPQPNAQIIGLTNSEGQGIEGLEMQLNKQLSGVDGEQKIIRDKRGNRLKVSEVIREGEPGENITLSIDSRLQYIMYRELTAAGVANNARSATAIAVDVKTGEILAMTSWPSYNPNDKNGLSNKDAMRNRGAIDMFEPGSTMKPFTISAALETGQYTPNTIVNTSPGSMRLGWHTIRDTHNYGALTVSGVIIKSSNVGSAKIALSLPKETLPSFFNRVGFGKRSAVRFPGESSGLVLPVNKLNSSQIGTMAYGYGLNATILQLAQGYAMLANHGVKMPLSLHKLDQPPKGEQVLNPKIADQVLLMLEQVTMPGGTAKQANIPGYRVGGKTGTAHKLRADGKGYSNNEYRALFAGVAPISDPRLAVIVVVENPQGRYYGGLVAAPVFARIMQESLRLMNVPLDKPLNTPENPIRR
Description: Bocillin-FL fluorescence polarization competition binding, A. baumannii PBP3. To be noted: fluorescence polarization competition binding assay using Bocillin-FL; read-out: A. baumannii PBP3 Potency. The procedure, abridged:
as §1

In the next assay the test system is A. baumannii ATCC 17978. Description: microbe, parasite or virus in culture. The format is cell-based. To be noted: Acinetobacter baumannii, ATCC17978, read-out: MIC, A. baumannii ATCC 17978.
Another assay deals with A. baumannii CDC-0036. Description: microbe, parasite or virus in culture. To be noted: Acinetobacter baumannii, CDC0036, read-out: MIC, A. baumannii CDC-0036. The format is cell-based.

T1 sequence (G3XD46 whole entry): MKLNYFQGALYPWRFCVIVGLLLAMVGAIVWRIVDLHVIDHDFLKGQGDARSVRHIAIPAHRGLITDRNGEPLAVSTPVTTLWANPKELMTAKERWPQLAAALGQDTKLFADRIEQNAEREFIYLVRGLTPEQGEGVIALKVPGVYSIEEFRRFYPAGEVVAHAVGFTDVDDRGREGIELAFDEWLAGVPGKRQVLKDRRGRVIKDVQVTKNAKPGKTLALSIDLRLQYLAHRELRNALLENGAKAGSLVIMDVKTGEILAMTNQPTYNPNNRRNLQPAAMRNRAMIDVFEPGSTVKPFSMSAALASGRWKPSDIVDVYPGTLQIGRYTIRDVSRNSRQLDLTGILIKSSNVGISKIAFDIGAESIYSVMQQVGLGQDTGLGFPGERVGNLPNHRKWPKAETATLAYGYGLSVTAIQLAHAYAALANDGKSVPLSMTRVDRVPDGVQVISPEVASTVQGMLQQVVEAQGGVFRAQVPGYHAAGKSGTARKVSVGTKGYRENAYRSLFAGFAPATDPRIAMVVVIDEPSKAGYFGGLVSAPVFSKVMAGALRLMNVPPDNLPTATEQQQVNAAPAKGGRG

With `O=C(O)c1c(F)ccc2c1OB(O)[C@@H](NC(=O)C(NC(=O)N1CCN(C3CCN(C(=O)Nc4cccc(O)c4)CC3)C(=O)C1=O)c1cc(F)c(O)c(O)c1Cl)C2` (stereo partly drawn) [Example 424, (3R)-3-(2-(2-chloro-5-fluoro-3,4-dihydroxyphenyl)-2-(4-(1-((3-hydroxyphenyl)carbamoyl)piperidin-4-yl)-2,3-dioxopiperazine-1-carboxamido)acetamido)-7-fluoro-2-hydroxy-3,4-dihydro-2H-benzo[e][1,2]oxaborinine-8-carboxylic acid], the MIC (in the assay on A. baumannii CDC-0045; in the assay with A. baumannii 1258916; in the assay with P. aeruginosa CDC-0054; with P. aeruginosa ATCC 27853; in the assay on P. aeruginosa CDC-0090; in assay [2]) was below 1 µg/mL in each case. Also, the MIC with A. baumannii ATCC 17978 and in the assay with A. baumannii CDC-0036 was below 1 µg/mL in each case. In addition, the IC50 in [1] and in assay [3] was below 10 µM each time.

As to `O=C(O)c1c(F)ccc2c1OB(O)[C@@H](NC(=O)C(NC(=O)N1CCN(C3CCN(C(=O)c4cncc(O)c4)CC3)C(=O)C1=O)c1cc(F)c(O)c(O)c1Cl)C2` (stereo partly drawn) [Example 425, (3R)-3-(2-(2-chloro-5-fluoro-3,4-dihydroxyphenyl)-2-(4-(1-(5-hydroxynicotinoyl)piperidin-4-yl)-2,3-dioxopiperazine-1-carboxamido)acetamido)-7-fluoro-2-hydroxy-3,4-dihydro-2H-benzo[e][1,2]oxaborinine-8-carboxylic acid], the MIC (in the assay with A. baumannii CDC-0045; in the assay on A. baumannii 1258916; with P. aeruginosa CDC-0054; in the assay on P. aeruginosa ATCC 27853; with P. aeruginosa CDC-0090; in assay [2]) was below 1 µg/mL throughout. Further, the MIC in the assay with A. baumannii ATCC 17978 and in the assay with A. baumannii CDC-0036 was below 1 µg/mL in each case. The IC50 in assay [1] and in [3] was below 10 µM throughout.

As for `O=C(O)c1c(F)ccc2c1OB(O)[C@@H](NC(=O)C(NC(=O)N1CCN(C3CCN(C(=O)c4ccc(O)cc4)CC3)C(=O)C1=O)c1cc(F)c(O)c(O)c1Cl)C2` (stereo partly drawn) [Example 427, (3R)-3-(2-(2-chloro-5-fluoro-3,4-dihydroxyphenyl)-2-(4-(1-(4-hydroxybenzoyl)piperidin-4-yl)-2,3-dioxopiperazine-1-carboxamido)acetamido)-7-fluoro-2-hydroxy-3,4-dihydro-2H-benzo[e][1,2]oxaborinine-8-carboxylic acid], the MIC in the assay with A. baumannii CDC-0045 was below 1 µg/mL; in the assay with A. baumannii 1258916 it was below 1 µg/mL; in the assay with P. aeruginosa CDC-0054 it was 2 to 4 µg/mL (≈ 2.54 to 5.09 µM); in the assay with P. aeruginosa ATCC 27853 it was below 1 µg/mL; in the assay with P. aeruginosa CDC-0090 it was 2 to 4 µg/mL (≈ 2.54 to 5.09 µM); in [2], below 1 µg/mL. For the same compound, the MIC in the assay on A. baumannii ATCC 17978 and in the assay on A. baumannii CDC-0036 was below 1 µg/mL in each case. Also, the IC50 in assay [1] and in assay [3] was below 10 µM in each case.

`O=C(O)c1c(F)ccc2c1OB(O)[C@@H](NC(=O)C(NC(=O)N1CCN(C3CCN(S(=O)(=O)c4cccc(O)c4)CC3)C(=O)C1=O)c1cc(F)c(O)c(O)c1Cl)C2` (stereo partly drawn) [Example 428, (3R)-3-(2-(2-chloro-5-fluoro-3,4-dihydroxyphenyl)-2-(4-(1-((3-hydroxyphenyl)sulfonyl)piperidin-4-yl)-2,3-dioxopiperazine-1-carboxamido)acetamido)-7-fluoro-2-hydroxy-3,4-dihydro-2H-benzo[e][1,2]oxaborinine-8-carboxylic acid]: the MIC in the assay on A. baumannii CDC-0045 was below 1 µg/mL; in the assay on A. baumannii 1258916 it was below 1 µg/mL; with P. aeruginosa CDC-0054, below 1 µg/mL; in the assay on P. aeruginosa ATCC 27853, 2 to 4 µg/mL (≈ 2.43 to 4.87 µM); in the assay with P. aeruginosa CDC-0090 it was below 1 µg/mL; in assay [2] it was above 128 µg/mL. Also, the MIC in the assay with A. baumannii ATCC 17978 is below 1 µg/mL; with A. baumannii CDC-0036, 2 to 4 µg/mL (≈ 2.43 to 4.87 µM). In addition, the IC50 in [1] and in assay [3] was below 10 µM each time.

Regarding `O=C(O)c1c(F)ccc2c1OB(O)[C@@H](NC(=O)C(NC(=O)N1CCN(C3CCN(S(=O)(=O)c4ccc(O)cc4)CC3)C(=O)C1=O)c1cc(F)c(O)c(O)c1Cl)C2` (stereo partly drawn) [Example 429, (3R)-3-(2-(2-chloro-5-fluoro-3,4-dihydroxyphenyl)-2-(4-(1-((4-hydroxyphenyl)sulfonyl)piperidin-4-yl)-2,3-dioxopiperazine-1-carboxamido)acetamido)-7-fluoro-2-hydroxy-3,4-dihydro-2H-benzo[e][1,2]oxaborinine-8-carboxylic acid], the MIC is below 1 µg/mL in the assay with A. baumannii CDC-0045; below 1 µg/mL with A. baumannii 1258916; below 1 µg/mL in the assay with P. aeruginosa CDC-0054; 2 to 4 µg/mL (≈ 2.43 to 4.87 µM) with P. aeruginosa ATCC 27853; below 1 µg/mL in the assay on P. aeruginosa CDC-0090; 8 to 16 µg/mL (≈ 9.73 to 19.5 µM) in assay [2]. The figures for the MIC with A. baumannii ATCC 17978 and in the assay on A. baumannii CDC-0036 were below 1 µg/mL and 2 to 4 µg/mL (≈ 2.43 to 4.87 µM), respectively. The IC50 in [1] and in assay [3] was below 10 µM throughout.

As for `O=C(NCCCN1CCN(C(=O)NC(C(=O)N[C@H]2Cc3ccc(F)c(C(=O)O)c3OB2O)c2cc(F)c(O)c(O)c2Cl)C(=O)C1=O)c1ccnc(F)c1` (stereo partly drawn) [Example 466, (3R)-3-(2-(2-chloro-5-fluoro-3,4-dihydroxyphenyl)-2-(4-(3-(2-fluoroisonicotinamido)propyl)-2,3-dioxopiperazine-1-carboxamido)acetamido)-7-fluoro-2-hydroxy-3,4-dihydro-2H-benzo[e][1,2]oxaborinine-8-carboxylic acid], the MIC in the assay on A. baumannii CDC-0045 is 2 to 4 µg/mL (≈ 2.62 to 5.24 µM); in the assay on A. baumannii 1258916 it was 2 to 4 µg/mL (≈ 2.62 to 5.24 µM); in the assay on P. aeruginosa CDC-0054 it was below 1 µg/mL; in the assay on P. aeruginosa ATCC 27853, 2 to 4 µg/mL (≈ 2.62 to 5.24 µM); with P. aeruginosa CDC-0090, 2 to 4 µg/mL (≈ 2.62 to 5.24 µM); in assay [2] it was 2 to 4 µg/mL (≈ 2.62 to 5.24 µM). For the same compound, the MIC with A. baumannii ATCC 17978 is below 1 µg/mL; in the assay with A. baumannii CDC-0036 it was 2 to 4 µg/mL (≈ 2.62 to 5.24 µM). Moreover, the IC50 in assay [1] and in assay [3] was below 10 µM throughout.

Consider `O=C(O)c1c(F)ccc2c1OB(O)[C@@H](NC(=O)C(NC(=O)N1CCN(C3CCN(C(=O)Cc4cccc(O)c4)CC3)C(=O)C1=O)c1cc(F)c(O)c(O)c1Cl)C2` (stereo partly drawn) [Example 474, (3R)-3-(2-(2-chloro-5-fluoro-3,4-dihydroxyphenyl)-2-(4-(1-(2-(3-hydroxyphenyl)acetyl)piperidin-4-yl)-2,3-dioxopiperazine-1-carboxamido)acetamido)-7-fluoro-2-hydroxy-3,4-dihydro-2H-benzo[e][1,2]oxaborinine-8-carboxylic acid], for which the MIC with A. baumannii CDC-0045 was below 1 µg/mL; with A. baumannii 1258916 it was below 1 µg/mL; with P. aeruginosa CDC-0054, below 1 µg/mL; with P. aeruginosa ATCC 27853, 2 to 4 µg/mL (≈ 2.5 to 5 µM); in the assay on P. aeruginosa CDC-0090, below 1 µg/mL; in assay [2], 2 to 4 µg/mL (≈ 2.5 to 5 µM). Further, the MIC in the assay with A. baumannii ATCC 17978 and with A. baumannii CDC-0036 was below 1 µg/mL each time. The IC50 in assay [1] and in assay [3] was below 10 µM each time.

Turning to `O=C(O)c1c(F)ccc2c1OB(O)[C@@H](NC(=O)C(NC(=O)N1CCN(CC3CCN(C(=O)c4cccc(O)c4)CC3)C(=O)C1=O)c1cc(F)c(O)c(O)c1Cl)C2` (stereo partly drawn) [Example 475, (3R)-3-(2-(2-chloro-5-fluoro-3,4-dihydroxyphenyl)-2-(4-((1-(3-hydroxybenzoyl)piperidin-4-yl)methyl)-2,3-dioxopiperazine-1-carboxamido)acetamido)-7-fluoro-2-hydroxy-3,4-dihydro-2H-benzo[e][1,2]oxaborinine-8-carboxylic acid], the MIC in the assay on A. baumannii CDC-0045 is below 1 µg/mL; in the assay with A. baumannii 1258916, below 1 µg/mL; in the assay with P. aeruginosa CDC-0054, below 1 µg/mL; with P. aeruginosa ATCC 27853, 2 to 4 µg/mL (≈ 2.5 to 5 µM); in the assay with P. aeruginosa CDC-0090 it was below 1 µg/mL; in assay [2], below 1 µg/mL. For the same compound, the MIC was below 1 µg/mL with A. baumannii ATCC 17978 and 2 to 4 µg/mL (≈ 2.5 to 5 µM) with A. baumannii CDC-0036. Moreover, the IC50 in assay [1] and in assay [3] was below 10 µM throughout.
